This passage reports IC50 results from patent US20220259193A1, “KCNT1 INHIBITORS AND METHODS OF USE” (Praxis Precision Medicines, Inc., priority 2019, published 2022).

This test has as its target T1, KCNT1 (KNa1.1, Slack) (Homo sapiens, UniProt Q5JUK3).
T1 construct: expressed in transfected cells; host or cells: HEK-TREX (tetracycline-inducible HEK cell line)
T1 sequence (Q5JUK3 1-1230): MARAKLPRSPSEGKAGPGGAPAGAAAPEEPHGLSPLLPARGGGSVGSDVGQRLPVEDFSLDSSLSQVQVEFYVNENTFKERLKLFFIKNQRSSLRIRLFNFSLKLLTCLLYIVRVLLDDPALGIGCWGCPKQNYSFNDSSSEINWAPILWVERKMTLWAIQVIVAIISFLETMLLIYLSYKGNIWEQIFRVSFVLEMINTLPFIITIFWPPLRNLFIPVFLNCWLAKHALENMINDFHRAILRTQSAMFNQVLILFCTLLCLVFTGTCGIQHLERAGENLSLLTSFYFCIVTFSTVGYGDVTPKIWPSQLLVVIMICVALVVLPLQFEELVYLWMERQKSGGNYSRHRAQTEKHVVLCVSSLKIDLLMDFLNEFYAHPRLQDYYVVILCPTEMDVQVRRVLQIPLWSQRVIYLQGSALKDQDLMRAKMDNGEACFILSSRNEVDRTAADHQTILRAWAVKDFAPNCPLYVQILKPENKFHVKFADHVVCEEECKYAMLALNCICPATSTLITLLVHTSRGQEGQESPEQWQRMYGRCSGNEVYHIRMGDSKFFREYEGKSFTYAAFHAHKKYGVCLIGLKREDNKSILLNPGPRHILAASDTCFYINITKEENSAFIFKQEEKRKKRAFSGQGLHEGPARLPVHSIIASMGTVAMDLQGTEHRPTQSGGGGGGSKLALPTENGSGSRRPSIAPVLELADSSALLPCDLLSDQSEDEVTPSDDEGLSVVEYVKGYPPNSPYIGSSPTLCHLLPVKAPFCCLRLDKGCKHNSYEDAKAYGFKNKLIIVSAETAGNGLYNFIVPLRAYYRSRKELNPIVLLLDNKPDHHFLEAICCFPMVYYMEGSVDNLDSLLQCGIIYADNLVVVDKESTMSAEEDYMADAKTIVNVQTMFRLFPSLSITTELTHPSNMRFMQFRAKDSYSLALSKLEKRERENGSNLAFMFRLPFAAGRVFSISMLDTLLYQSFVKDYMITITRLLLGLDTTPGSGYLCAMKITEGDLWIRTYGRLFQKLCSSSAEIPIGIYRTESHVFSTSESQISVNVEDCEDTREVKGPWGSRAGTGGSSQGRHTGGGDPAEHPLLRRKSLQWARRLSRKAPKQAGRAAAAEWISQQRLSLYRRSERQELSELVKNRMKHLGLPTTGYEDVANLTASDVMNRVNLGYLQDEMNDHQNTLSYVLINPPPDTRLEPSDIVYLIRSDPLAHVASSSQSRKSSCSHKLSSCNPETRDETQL
The experiment in a line: KCNT1 patch clamp assay (SyncroPatch 384PE automated patch clamp). The class given is cell-based. Particulars: tetracycline inducible HEK-TREX cell line; perforated patch; step from −80 mV to 0 mV; room temperature; read-out: KCNT1-WT IC50. The gist of the method: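 Tetracycline-inducible HEK-TREX cells; perforated-patch (10 μM escin) population recordings at room temperature, holding −80 mV with 100 ms step to 0 mV.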
In general terms: Patch clamp records ionic current or voltage across a cell membrane.

The IC50 is the concentration that gives 50% inhibition. For the compound `C[C@H](NC(=O)c1ccnn1CC1CC1)c1nc(-c2ccnc(C3CC3)c2)no1` [Compound 310, 2-(cyclopropylmethyl)-N-[(1S)-1-[3-(2-cyclopropyl-4-pyridyl)-1,2,4-oxadiazol-5-yl]ethyl]pyrazole-3-carboxamide], the half-maximal inhibitory concentration (IC50) was not above 1000 nM.
